How the values were obtained:
[1] = test system: MM-AN human melanoma cells; assay: apoptosis of MM-AN melanoma cells by FACS analysis (propidium iodide); type: cell-based; details: 10 μM, 40 μM and 80 μM
Procedure: Cultures of MM-AN human melanoma cells were treated with diluent (water or DMSO) alone, a T-oligo (16mer: 5′ GTTAGGGTTAGGGTTA 3′; SEQ ID NO: 2), SPOX-1, or SPOX-2 for 96 hours, then collected and processed for FACS analysis. One concentration of the T-oligo (20 μM) and three concentrations of each SPOX compound (10 μM, 40 μM and 80 μM) were tested. Each bar is the mean of triplicate dishes +/− standard error of the mean (SEM). FACS profiles are depicted at the top of the figure.
Cultures of MM-AN human melanoma cells were treated with diluent (water or DMSO) alone, 16mer T-oligo (SEQ ID NO: 2), SPOX-337, SPOX-338 or SPOX-343 for 72 hours, then collected and processed for FACS analysis. One concentration of the T-oligo (20 μM) and three concentrations of each SPOX compound (10 μM, 40 μM and 80 μM) were tested.

human skin explants = assay: melanogenesis in human skin explants (Fontana Masson stain, image analysis); type: cell-based; details: 80 uM; 24, 48 and 72 hours; positive control pTT 100 uM
Procedure: Normal facial skin removed from a person at the time of facelift was carefully cut into fragments approximately 5×5 mm. The fragments were placed in tissue culture dishes in standard culture medium, under conditions known to maintain the fragments in good condition, responsive to physiologic stimuli, for at least one week (Arad et al, FASEB J. Jul. 28, 2006. [Epub]). Fragments were arranged with at least 3 per 35 mm dish and after 48 hours, one dish each was provided with fresh medium containing diluent (DMSO) alone (Dil) or SPOX-1 or SPOX-2 each at 80 uM or thymidine dinucleotide (pTT) at 100 uM as a positive control. […] The 72 hour diluent (Dil) control sample was judged to be bacterially contaminated, affecting both the overall histology and the apparent melanin content, which based on earlier experiments would be expected to be the same as at 24 and 48 hours. All other samples were believed to be healthy and to accurately represent the response to treatment.

MCF-7 cells = assay: growth of MCF-7 breast cancer cells; type: cell-based, human; details: for growth of MCF-7 cells: 10 μM; for growth of MCF-7 cells / growth of MCF-7 cells at higher concentrations: 40 μM and 80 μM; for growth of MCF-7 cells at higher concentrations: 8 days after plating; for growth of MCF-7 cells at highest concentration: 80 μM, 3 days after plating; for growth arrest of malignant cells: summary statement
Procedure: The effect of SPOX compounds on growth and apoptosis of human breast cancer cells was tested using cultures of MCF-7 cells. The effect on cell growth was tested by plating 20,000 cells per 35 mm dish. Medium containing either diluent alone (DMSO), SPOX-1 or SPOX-2 (10 μM, 40 μM and 80 μM) was introduced at 96 hours and growth was determined 8 days after plating.
The effect of SPOX compounds on growth of human breast cancer cells was tested using cultures of MCF-7 cells. The effect on cell growth was tested by plating 20,000 cells per 35 mm dish. Medium containing either diluent (water or DMSO) alone, SPOX-337, SPOX-388, SPOX-343 (10 μM, 40 μM and 80 μM) or 16mer T-oligo (SEQ ID NO: 2) was introduced at 96 hours and growth was determined 3 days after plating.

human fibroblasts = assay: growth of newborn fibroblast cells; type: cell-based; details: 40 μM; growth determined 2 and 4 days after plating
Procedure: The effect of SPOX compounds on growth of human fibroblasts was tested using cultures of newborn fibroblast cells. Briefly, 20,000 cells were plated per 35 mm dish. Medium containing either diluent (dimethyl sulfoxide (DMSO)) alone, SPOX-1 (40 μM) SPOX-2 (40 μM) or 11mer T-oligo (SEQ ID NO:1) was introduced at 96 hours and growth was determined 2 and 4 days after plating.

[2] = test system: poly(ADP-ribose) polymerase (PARP); assay: PARP cleavage in MCF-7 cells, western blot; type: cell-based, human; details: compared with TNF-α
Procedure: (§1) Phosphorylation of Histone H2AX (forming γH2AX) was assessed as a marker for DNA damage. Apoptosis was measured by western blot analysis to show cleavage of poly(ADP-ribose) polymerase (PARP). PARP is a substrate for caspase-3, an enzyme that mediates apoptosis, and thus cleavage of PARP by caspase-3 is indicative of ongoing apoptosis. […] Thus, both SPOX compounds induce apoptosis and formation of γH2AX, as a marker of DNA damage-like responses, in the MCF-7 breast cancer cell line.

p21 = p21 level in human fibroblasts, Western blot; type: cell-based; details: 48 hours, compared with diluent alone
Procedure: (§2) Human fibroblasts were treated with diluent (water or DMSO) alone, SPOX-1, SPOX-2, or 16mer T-oligo (SEQ ID NO: 2) for 48 hours after which total cellular proteins were harvested and Western blot analysis performed using anti-p53 and anti-p21 antibodies.

p53 = p53 level in human fibroblasts, Western blot; type: cell-based; details: 48 hours, compared with diluent alone
Procedure: as §2

[3] = test system: MM-AN human melanoma cells; assay: growth of MM-AN melanoma cells; type: cell-based; details: 40 μM; 2, 3 and 4 days after treatment
Procedure: (§3) The effect of SPOX compounds on growth of human melanoma cells was tested using cultures of MM-AN cells. Briefly, 20,000 MM-AN cells were plated per 35 mm dish. Medium containing either diluent (DMSO) alone, SPOX-1 or SPOX-2 (40 μM) was introduced at 96 hours and growth was determined 2, 3 and 4 days after treatment.

[4] = test system: ataxia telanglectasia mutated (ATM) kinase; assay: phosphorylation of ATM at serine 1981 in MM-AN cells, Western blot; type: cell-based, human; details: 40 μM, 48 hours
Procedure: Phosphorylated ATM in turn phosphorylates, and thus activates, p53. MM-AN cells were treated with diluent (medium or DMSO) alone, 40 μM of […] or 40 μM of SPOX-2 for 48 hours then collected and analyzed by Western blot using an antibody against ATM phosphoserine 1981.

[5] = test system: H460 human lung cancer cells; assay: growth of H460 lung cancer cells; type: cell-based; details: 40 μM; 1, 2, 3 and 4 days after plating
Procedure: as §3, with “lung cancer” for “melanoma”, “H460” for “MM-AN”, “20,000H460” for “20,000 MM-AN”, “determined 1,” for “determined”, “plating.” for “treatment.”

Histone H2AX (γH2AX) [6] = assay: γH2AX formation in MCF-7 cells, western blot; type: cell-based, human; details: compared with 16mer T-oligo
Procedure: as §1

survivin = survivin expression in H460 lung cancer cells; type: cell-based, human; details: for survivin expression at 80 μM: 24 hours; for survivin expression / survivin expression at 40 μM: 2 days, 40 μM; for survivin expression: 20 μM
Procedure: The ability of the SPOX compounds to inhibit expression of survivin, a member of the Inhibitor of Apoptosis Protein (IAP) family, was determined by treating H460 human lung cancer cells for two days with diluent (DMSO) alone, SPOX-1 (20 μM, 40 μM), SPOX-2 (20 μM, 40 μM) and T-oligo (16mer: 5′ GGTTGGTTGGTTGGTT 3′; SEQ ID NO: 3) (20 μM, 40 μM) or for 24 hours with SPOX-1 (80 μM) or SPOX-2 (80 μM). Following treatment, cells were collected, counted, and assayed for survivin expression. The results are depicted in FIG. 15.

[7] = test system: WRN− U20S human osteosarcoma cells; assay: apoptosis of WRN− U20S cells by FACS analysis; type: cell-based; details: 96 hours
Procedure: (§4) Cultures of WRN+ and WRN− U20S human osteosarcoma cells were treated with either diluent (water or DMSO) alone, 16mer T-oligo (SEQ ID NO: 2) or SPOX-1 for 96 hours, then collected and processed for FACS analysis. One concentration of the 16mer T-oligo was tested, 20 μM, and three concentrations of SPOX-1 were tested, 10 μM, 40 μM and 80 μM.

[8] = test system: WRN+ U20S human osteosarcoma cells; assay: apoptosis of WRN+ U20S cells by FACS analysis; type: cell-based; details: 96 hours; 10 μM, 40 μM and 80 μM
Procedure: as §4

Histone H2AX (γH2AX) [9] = assay: γH2AX formation in human fibroblasts by immunofluorescent microscopy; type: cell-based; details: 48 hours
Procedure: Phosphorylation of Histone H2AX (forming γH2AX) is a marker for DNA damage in many settings and is also observed at telomeres when cells enter senescence. […] In both experiments, cells were incubated for 48 hours in the presence of SPOX-1 or 11mer T-oligo before processing for immunofluorescent microscopy.

[10] = growth determined 8 days after plating
[11] = growth determined 3 days after plating

With C=CCOC(=O)C1C2C(=O)OC(c3ccccc3)C(c3ccccc3)N2C(c2ccc(O)cc2)C12C(=O)Nc1ccc(I)cc12 (centres unmarked) [SPOX-2] the induction of apoptosis ([1]; 96 hours) was “induced apoptosis”, the “melanogenesis (tanning) in human skin” value (human skin explants) was “caused tanning, comparable to pTT” and the “growth of MCF-7 cells” value (MCF-7 cells; [10]) was “inhibited growth of MCF-7 cells in a dose-dependent manner”. The “growth of MCF-7 cells at higher concentrations” value (MCF-7 cells) was “nearly complete inhibition of growth”, the “growth of human fibroblast cells” value (human fibroblasts) was “inhibited growth” and the PARP cleavage [2] was “cause PARP cleavage”. For the same molecule, the “level of p21” value (p21) was “induced the level of the p53-dependent downstream effector protein p21 to a similar degree as 16mer T-oligo”, the “level of p53” value (p53) was “induced the level of p53” and the “growth of MM-AN cells” value [3] was “inhibited growth”. For the same molecule, the “phosphorylation of ATM at serine 1981” value [4] was “induce phosphorylation of ATM”, the “growth of H460 cells” value [5] was “inhibited growth” and the “phosphorylation of histone H2AX (γH2AX)” value (Histone H2AX (γH2AX) [6]) was “cause phosphorylation of the histone protein H2AX”. For the same molecule, the “survivin expression at 80 μM” value (survivin) was “reduced survivin expression to nearly undetectable levels”, the survivin expression (survivin) was “dose-dependent reduction in survivin expression” and the “survivin expression at 40 μM” value (survivin) was “nearly undetectable”.
For C=CCOC(=O)C1C2C(=O)OC(c3ccccc3)C(c3ccccc3)N2C(c2ccc(O)cc2)C12C(=O)Nc1ccccc12 (centres unmarked) [SPOX-343], the induction of apoptosis ([1]; 72 hours) was “induced apoptosis with SPOX-337 and SPOX-343 having greatest effect”, the “growth of MCF-7 cells” value (MCF-7 cells; [11]) was “inhibited growth of MCF-7 cells in a dose-dependent manner” and the “growth of MCF-7 cells at highest concentration” value (MCF-7 cells) was “nearly complete inhibition of growth”. The “growth arrest of malignant cells” value (MCF-7 cells) was “retain the capability of arresting the growth of malignant cells”.
With C=CCOC(=O)C1C2C(=O)OC(c3ccccc3)C(c3ccccc3)N2C(c2ccc(OCCO)cc2)C12C(=O)Nc1ccc(I)cc12 (centres unmarked) [SPOX-337] the induction of apoptosis ([1]; 72 hours) was “induced apoptosis with SPOX-337 and SPOX-343 having greatest effect”, the “growth of MCF-7 cells” value (MCF-7 cells; [11]) was “inhibited growth of MCF-7 cells in a dose-dependent manner” and the “growth of MCF-7 cells at highest concentration” value (MCF-7 cells) was “nearly complete inhibition of growth”. The “growth arrest of malignant cells” value (MCF-7 cells) was “retain the capability of arresting the growth of malignant cells”.
In the case of C=CCOC(=O)C1C2C(=O)OC(c3ccccc3)C(c3ccccc3)N2C(c2ccc(OCCO)cc2)C12C(=O)Nc1ccccc12 (centres unmarked) [SPOX-338], the induction of apoptosis ([1]; 72 hours) is reported as “induced apoptosis”, the “growth of MCF-7 cells” value (MCF-7 cells; [11]) is reported as “inhibited growth of MCF-7 cells in a dose-dependent manner” and the “growth of MCF-7 cells at highest concentration” value (MCF-7 cells) is reported as “nearly complete inhibition of growth”. The “growth arrest of malignant cells” value (MCF-7 cells) was “retain the capability of arresting the growth of malignant cells”.
With “16mer T-oligo (SEQ ID NO: 2): telomere homolog oligonucleotide, 16mer: 5′ GTTAGGGTTAGGGTTA 3′; SEQ ID NO: 2 (listed as DNA, further chemistry not given here) [reference compound]” the “induction of apoptosis in WRN− versus WRN+ U20S cells” value ([7]; 20 μM) was “less effective in inducing apoptosis in WRN− than in U20S cells with intact WRN”.
In the case of C=CCOC(=O)C1C2C(=O)OC(c3ccccc3)C(c3ccccc3)N2C(c2ccc(O)cc2)C12C(=O)Nc1ccc(I)cc12 (centres unmarked) [SPOX-1], the “induction of apoptosis in WRN+ U20S cells” value [8] is reported as “induced apoptosis in WRN+ U20S cells in a dose-dependent manner”, the γH2AX expression (Histone H2AX (γH2AX) [9]) is reported as “induce γH2AX expression” and the induction of apoptosis ([1]; 96 hours) is reported as “induced apoptosis with SPOX-1 having a greater effect”. The “melanogenesis (tanning) in human skin” value (human skin explants) was “caused tanning, comparable to pTT”, the “growth of MCF-7 cells” value (MCF-7 cells; [10]) was “inhibited growth of MCF-7 cells in a dose-dependent manner” and the “growth of MCF-7 cells at higher concentrations” value (MCF-7 cells) was “nearly complete inhibition of growth”. For the same molecule, the “growth of human fibroblast cells” value (human fibroblasts) was “inhibited growth”, the PARP cleavage [2] was “cause PARP cleavage” and the “level of p21” value (p21) was “induced the level of the p53-dependent downstream effector protein p21 to a similar degree as 16mer T-oligo”. The “level of p53” value (p53) was “induced the level of p53”, the “growth of MM-AN cells” value [3] was “inhibited growth” and the “growth of H460 cells” value [5] was “inhibited growth”. For the same molecule, the “phosphorylation of histone H2AX (γH2AX)” value (Histone H2AX (γH2AX) [6]) was “cause phosphorylation of the histone protein H2AX”, the “induction of apoptosis in WRN− U20S cells” value ([7]; 40 μM and 80 μM) was “apoptosis was also seen” and the “survivin expression at 80 μM” value (survivin) was “reduced survivin expression to nearly undetectable levels”. The survivin expression (survivin) was “dose-dependent reduction in survivin expression” and the “survivin expression at 40 μM” value (survivin) was “nearly undetectable”.
With “11mer T-oligo: telomere homolog oligonucleotide, 11mer: 5′ GTTAGGGTTAG 3′; SEQ ID NO: 1 (listed as DNA, further chemistry not given here) [reference compound]” the γH2AX expression (Histone H2AX (γH2AX) [9]) was “induce γH2AX expression” and the “phosphorylation of ATM at serine 1981” value [4] was “induce phosphorylation of ATM”.
